From paper PMC10613275 (Scientific Reports, 2023)
Read-outs that look alike come from different tables or passages of the source. Marks after values point to notes of the source that are not given here.

Tests used:
[1] = Intestinal absorption, Caco-2 intestinal barrier model in vitro; format: in vitro ADME, human; conditions: human
[2] = tested on: Caco-2 cells; assay: as above; format: in vitro ADME, human; conditions: lilial 1 mM, 4 h
[3] = Cytotoxicity, cell viability (resazurin assay), HeLa9903; format: cell-based, human; conditions: human, HeLa9903 cells, all concentrations up to 100 µM, vs vehicle control, read-out: Relative viability
[4] = tested on: HeLa9903 cells; assay: as above; format: cell-based, human; conditions: 1 nm–100 µM, 1 day
[5] = tested on: androgen receptor; assay: Androgenic activity, transactivation luciferase assay in MDA-kb2; conditions: 1 nm–100 µM, MDA-kb2
Source text: Results were expressed as fold induction (FI), i.e. fold increase compared to vehicle control. According to EPA[28], FI of positive control should be above 4 to meet the performance standard.

[6] = tested on: CHO-K1 cells (hprt gene); assay: CHO/HPRT mutation assay; format: cell-based, Chinese hamster; conditions: for Mutagenicity result: 50 µM without, 500 µM with metabolic activation
Method: The test with metabolic activation was performed as described in the OECD protocol, the ASTM standard[23] and other protocols[30],[31] and publications. For the test, cryopreserved CHO-K1 cells after the mutant cleansing were used. Mutant cleansing was performed according to[30], i.e. cells were cultivated three days in HAT medium, one day in HT medium and then frozen.
One passage after the thawing, 1 × 10^6 cells were seeded in 60 mm cultivation plates as described in[32]. […] The final concentration of the solvent, DMSO, was 1%. […] EMS at final concentration 2 mM as recommended in[31] served as a positive control. 3-MC at final concentration […][22] served as a positive control for metabolic activation. 1% DMSO was used as a VC. Sole cultivation medium served as a negative control (NC). After 4 h, the medium with tested substances was removed, plates were washed with PBS and fresh medium with 10% FBS was added.
During the expression period (1 week), the cells on all 60 mm plates were passaged once. On day 8, cells were trypsinized, resuspended, counted and 2 × 10^5 cells of each plate were seeded on 60 mm plates in triplicates in the presence of a selective agents, 6-TG (30 µM) as described in[32]. […] 300 cells without the selective agent were seeded in a parallel to evaluate plating efficiency (PE). On day 15, the plates were washed with PBS, cells were fixed with ice cold methanol for 10 min and stained with 0.05% crystal violet in water for 30 min[33]. After washing with water, formed colonies were counted using Schuett Count (Schuett-biotec, Göttingen, Germany). Calculations were done as described in[29]. PE was calculated according to a general Eq. 1. Particular PE at selective conditions was calculated according to Eq. 2. Particular PE at non-selective conditions was calculated according to Eq. 3. Mutation frequency (MF) was calculated according to Eq. 4.1 PE=numberofcoloniesformed/numberofcellsplated 2 PEselective=numberofmutantcoloniesNMC/200,000 3 PEnon-selective=numberofcoloniesformed/300 4 MF=PEselectiveconditions/PEnon-selectiveconditions

[7] = tested on: CHO-K1 cells; format: cell-based, Chinese hamster; conditions: for MoA (mean fluorescence values over area of the nuclei): lilial 100 µM, PC 30 μM
Method: Briefly, HeLa and CHO-K1 cells were seeded at a concentration of 1 × 10^5 cells/ml into the 96-well plates. CHO-K1 cells were used for comparison with HPRT test. HeLa cells were recommended by the manufacturer of the kit. After 24 h, cells were rinsed with PBS and cultivation medium (“Cell lines” Section) without ATB, with a reduced content of FBS (5%) was added. 30 µM valinomycin (in DMSO) was used as a positive control Samples were applied in the presence of non-toxic sample concentrations, i.e. 100 µM either with or without S9 mix. […] Cells were photographed using a fluorescence microscope (Olympus IX83); filters: DAPI (500 ms) and Cy3 (500 ms). Bioimage analysis in ImageJ software was performed as described previously.

[8] = Metabolic activation with rat liver S9, GC/HRMS; format: in vitro ADME; conditions: 37 °C, 1 h; to lysmerylic acid and p-tert-butylbenzoic acid as major metabolites
Source text: Metabolic activation was verified using GC/HRMS as described above.

[9] = tested on: CHO-K1 cells (hprt gene); assay: CHO/HPRT mutation assay; format: cell-based, Chinese hamster; conditions: lilial 500 µM, 3MC 2 µg/ml
[10] = tested on: complexes I and II of the electron transport chain; conditions: cited from earlier work
[11] = tested on: HaCaT cells; conditions: 10 µM ref 2; cited from earlier work
[12] = tested on: NIH3T3 cells; conditions: NIH3T3 ref 2; cited from earlier work
[13] = tested on: MCF7 cells; conditions: MCF7 ref 2; cited from earlier work
[14] = tested on: MCF-7 human breast cancer cells; conditions: cited from earlier work
[15] = tested on: NRF2 protein in THP-1 cells; conditions: 650 µM, 5 h ref 15; cited from earlier work
[16] = tested on: ARE-Nrf2 luciferase (KeratinoSens); set-up: method as in PMID 23576290; conditions: cited from earlier work
[17] = set-up: method as in earlier work; conditions: human volunteers, cited from earlier work
[18] = tested on: mouse lymphoma cells; set-up: method as in earlier work; conditions: cited from earlier work
[19] = tested on: rats; conditions: rat, in vivo; cited from earlier work
[20] = tested on: dogs; conditions: dog, in vivo; cited from earlier work
[21] = tested on: Salmonella strains; conditions: up to 5000 µg/plate with or without metabolic activation ref 4; cited from earlier work

## CC(C=O)Cc1ccc(C(C)(C)C)cc1 (centres unmarked) [Lilial, 3-(4-(tert-butyl)phenyl)-2-methylpropanal]
[1]; Caco-2, lilial 1 mM, 4 h, all compartments
  recovery at 4 h, 1 mM: ~80%
[1]; Caco-2, read-out: Papp (apparent permeability coefficient)
  Papp at 4 h, 1 mM: 21 ×10⁻⁶ cm/s
[2]
  Lilial (%) in Caco-2 cells: 13.1 ± 5.2%
  Lilial (%) in apical medium: 32.3 ± 2.0%
  Lilial (%) in basolateral medium: 34.1 ± 3.4%
[2]; all compartments
  Recovery: 79.5%
[3]
  viability at 1 day: > 80%
[4]
  Cytotoxicity result: Non toxic up to 100 µM
[5]
  Androgenic activity (agonist) result: Non active up to 100 µM
[5]; listed as lilial
  Androgenic activity (agonist) result: no activity was detected
[6]
  Mutagenicity result: Non mutagenic
[6]; listed as lilial
  Mutagenicity result: not mutagenic
[6]; Table 3, without activation, lilial 50 µM, EMS 240 µg/ml (2 mM), 4 h
  MF (/10^6) mutation frequency: 9 ± 4 /10^6
[6]; Table 4, With S9, lilial 500 µM, 3MC 2 µg/ml
  NMC (number of mutant colonies): 1 ± 1
[7]; CHO-K1, 100 µM
  Genotoxicity result: Inconclusive
[7]; CHO-K1, 4h_S9
  MoA (mean fluorescence values over area of the nuclei): 1.10*
[7]; CHO-K1, 4 h, without S9
  MoA (mean fluorescence values over area of the nuclei): 0.52
[7]; CHO-K1, 24 h
  MoA (mean fluorescence values over area of the nuclei): 0.99
[8]
  Metabolism in presence of Arochlor-induced rat liver S9 fractions: almost completely metabolised
[9]; Table 4, With S9
  MF (/106) mutation frequency: 6 ± 5 /106
[9]; Table 4, Without S9
  NMC (number of mutant colonies): 0
[10]
  Effect on complexes I and II of the electron transport chain: inhibit complexes I and II
[11]
  Decrease in cell viability: 65%
[12]
  Effect on cell viability: no negative effect
[13]
  Effect on cell viability: no negative effect
[14]; MCF7 in vitro ref 8
  Estrogenic activity (expression of transfected reporter and endogenous pS2 gene): very weak estrogenic activity
[14]; lilial 100 µM, estrogen 10 nM, unaffected control 1.8 doublings ref 8
  Cell doublings: 2.4 doublings
[15]
  Level of NRF2 protein: significant increase
[16]
  KeratinoSens assay result: negative
[17]; dermal 6 h, urine within 24 h ref 4
  Mean of applied dose detected in urine: 1.4%
[17]; dermal 6 h ref 4
  Topical application recovery: 71 ± 10%
[18]
  Mouse lymphoma assay outcome: negative outcome
[19]
  Oral dose that reduced body weight, gave clinical and systemic toxicity: ≥ 50 mg/kg/day
[20]
  Oral dose that reduced body weight, gave clinical and systemic toxicity: ≥ 200 mg/kg/day
[21]
  Mutagenic activity, Ames test: increased number of revertant colonies were detected only for the Salmonella strain TA1535, but it was not reproducible
